Test results from patent publication US20240158446A1, “CYCLIC COMPOUND HAVING SELECTIVE INHIBITORY ACTION ON KRAS OVER HRAS AND NRAS” (CHUGAI SEIYAKU KABUSHIKI KAISHA, priority 2021, published 2024).
pIC50, pKd: −log10 of the molar value. Like-named read-outs stand apart in the source and are kept apart here.

Tests used:
[1] = molecular target: GDP-bound KRAS wild-type protein (Homo sapiens, UniProt P01116); assay: Binding to KRAS by surface plasmon resonance (SPR), Single Cycle Kinetics
[2] = molecular target: GDP-bound NRAS wild-type protein (Homo sapiens, UniProt P01111); assay: Binding to NRAS by surface plasmon resonance (SPR), Single Cycle Kinetics; settings: for NRAS/KRAS (ratio of KD value for NRAS to KD value for KRAS): GDP-bound NRAS wild-type protein vs GDP-bound KRAS wild-type protein; for NRAS/KRAS (ratio of KD value with respect to GDP-bound NRAS wild-type protein to KD value with respect to KRAS): SPR KD ratio NRAS/KRAS, class symbols
GDP-bound NRAS wild-type protein, sequence (P01111 whole entry): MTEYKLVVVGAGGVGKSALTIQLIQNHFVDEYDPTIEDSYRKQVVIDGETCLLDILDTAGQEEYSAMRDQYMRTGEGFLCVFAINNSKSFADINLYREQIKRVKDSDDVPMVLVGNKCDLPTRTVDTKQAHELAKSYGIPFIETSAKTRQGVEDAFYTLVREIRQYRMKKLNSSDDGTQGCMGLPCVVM

[3] = molecular target: GDP-bound HRAS wild-type protein (Homo sapiens, UniProt P01112); assay: Binding to HRAS by surface plasmon resonance (SPR), Single Cycle Kinetics; settings: for HRAS/KRAS (ratio of KD value for HRAS to KD value for KRAS): GDP-bound HRAS wild-type protein vs GDP-bound KRAS wild-type protein; for HRAS/KRAS (ratio of KD value with respect to GDP-bound HRAS wild-type protein to KD value with respect to KRAS): SPR KD ratio HRAS/KRAS, class symbols
GDP-bound HRAS wild-type protein, sequence (P01112 whole entry): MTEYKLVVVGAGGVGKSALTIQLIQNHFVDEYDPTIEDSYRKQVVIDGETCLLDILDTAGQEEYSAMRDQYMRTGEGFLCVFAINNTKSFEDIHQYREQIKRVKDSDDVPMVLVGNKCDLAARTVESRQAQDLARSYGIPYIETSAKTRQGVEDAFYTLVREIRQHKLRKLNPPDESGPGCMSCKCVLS

[4] = tested on: human lung cancer strain NCI-H441;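 further: cell proliferation inhibition after four days measured by CellTiter-Glo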
[5] = SPR, Single Cycle Kinetics, GDP-bound KRAS wild-type protein, read-out: KRAS KD
[6] = SPR Single Cycle Kinetics, GDP-bound KRAS wild-type protein, 1:1 binding model, read-out: KRAS KD
[7] = SPR, Single Cycle Kinetics, 1:1 binding model, GDP-bound KRAS wild-type protein, read-out: KRAS KD

GDP-bound KRAS wild-type protein, sequence (P01116 whole entry): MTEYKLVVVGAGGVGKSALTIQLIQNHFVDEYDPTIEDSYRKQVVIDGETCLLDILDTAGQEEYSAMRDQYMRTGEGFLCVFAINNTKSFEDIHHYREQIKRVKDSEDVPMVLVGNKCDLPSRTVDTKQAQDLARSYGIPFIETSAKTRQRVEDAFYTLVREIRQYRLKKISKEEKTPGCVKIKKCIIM

pKd [1, 5]	pIC50 [4]	SMILES	NRAS/KRAS (ratio of KD value for NRAS to KD value for KRAS) ([2]; SPR)	HRAS/KRAS (ratio of KD value for HRAS to KD value for KRAS) ([3]; SPR)	other results
–	7.04	CCC(CC)[C@H]1C(=O)N(C)[C@H](C(=O)N(C)C)CC(=O)N(C)[C@@H](COC)C(=O)N[C@@H]([C@@H](C)CC)C(=O)N(C2CC2)CC(=O)N(C)[C@H]2C/C=C\CCN(C2=O)[C@@H](CC2CCC(F)(F)CC2)C(=O)N(C)CC(=O)N[C@@H](CCc2cc(F)c(C(F)(F)F)c(F)c2)C(=O)N2C[C@H](OC(C)C)C[C@H]2C(=O)NC2(CC(C)(C)C2)C(=O)N1C [PP2523]	–	–	pKd [1, 6]: 8.77; NRAS/KRAS (ratio of KD value with respect to GDP-bound NRAS wild-type protein to KD value with respect to KRAS) [2]: A (a compound having 10 or more and less than 20 is denoted as A); HRAS/KRAS (ratio of KD value with respect to GDP-bound HRAS wild-type protein to KD value with respect to KRAS) [3]: A (a compound having 10 or more and less than 20 is denoted as A)
9.51	7.32	CCCO[C@H](C)[C@@H]1NC(=O)[C@H](COCC)N(C)C(=O)C[C@@H](C(=O)N(C)CC)N(C)C(=O)[C@H](C2CCCC2)N(C)C(=O)C2(CC(C)(C)C2)NC(=O)[C@@H]2C[C@H](C)CN2C(=O)[C@H](CCc2cc(F)c(C(F)(F)F)c(F)c2)NC(=O)CN(C)C(=O)[C@H](Cc2ccc(C)cc2)N2CC/C=C\C[C@@H](C2=O)N(C)C(=O)CN(C)C1=O [PP2426]	AA (a compound having 20 or more is denoted as AA)	A (a compound having 10 or more and less than 20 is denoted as A)	–
–	7.63	CCO[C@@H]1C[C@H]2C(=O)NC3(CC(C)(C)C3)C(=O)N(C)[C@@H](C(CC)CC)C(=O)N(C)[C@H](C(=O)N(C)C)CC(=O)N(C)[C@@H](COC)C(=O)N[C@@H]([C@@H](C)CC)C(=O)N(C3CC3)CC(=O)N(C)[C@H]3C/C=C\CCN(C3=O)[C@@H](CC3CCC(F)(F)CC3)C(=O)N(C)CC(=O)N[C@@H](CCc3cc(F)c(C(F)(F)F)c(F)c3)C(=O)N2C1 [PP2568]	–	–	pKd [1, 6]: 8.92; NRAS/KRAS (ratio of KD value with respect to GDP-bound NRAS wild-type protein to KD value with respect to KRAS) [2]: A (a compound having 10 or more and less than 20 is denoted as A); HRAS/KRAS (ratio of KD value with respect to GDP-bound HRAS wild-type protein to KD value with respect to KRAS) [3]: B (a compound having 3 or more and less than 10 is denoted as B)
–	8.48	CCO[C@@H]1C[C@H]2C(=O)NC3(CCCC3)C(=O)N(C)[C@@H](C3CCCC3)C(=O)N(C)[C@H](C(=O)N(C)C)CC(=O)N(C)[C@@H](CC3CC3)C(=O)N[C@@H]([C@@H](C)CC)C(=O)N(C)CC(=O)N(C)[C@H]3C[C@@H](C)[C@@H](C)CN(C3=O)[C@@H](Cc3ccc(C(F)(F)F)cc3)C(=O)N(C)CC(=O)N[C@@H](CCc3cc(F)c(C(F)(F)F)c(F)c3)C(=O)N2C1 [PP1356]	–	–	pKd [1, 7]: 10.33; NRAS/KRAS (ratio of KD value for NRAS to KD value for KRAS) ([2]; SPR, KD ratio class): B (a compound having 3 or more and less than 10 is denoted as B); HRAS/KRAS (ratio of KD value for HRAS to KD value for KRAS) ([3]; SPR, KD ratio class): B (a compound having 3 or more and less than 10 is denoted as B)
–	7.35	CCO[C@@H]1C[C@H]2C(=O)NC3(CCC3)C(=O)N(C)[C@@H](C3CCCC3)C(=O)N(C)[C@H](C(=O)N(C)C)CC(=O)N(C)[C@@H](CSC)C(=O)N[C@@H]([C@@H](C)CC)C(=O)N(C)CC(=O)N(C)[C@H]3C/C=C\CCN(C3=O)[C@@H](CC3CCCCC3)C(=O)N(C)CC(=O)N[C@@H](CCc3cc(F)c(C(F)(F)F)c(F)c3)C(=O)N2C1 [PP1463, (2S,8S,12R,14S,20S,23S,27R,30S,36S,38Z)-2-(cyclohexylmethyl)-20-cyclopentyl-8-[2-[3,5-difluoro-4-(trifluoromethyl)phenyl]ethyl]-12-ethoxy-N,N,4,19,22,26,32,35-octamethyl-30-[(1S)-1-methylpropyl]-27-(methylsulfanylmethyl)-3,6,9,15,18,21,25,28,31,34,42-undecaoxo-spiro[1,4,7,10,16,19,22,26,29,32,35-undecazatricyclo[34.5.1.0^10,14]dotetracont-38-ene-17,1′-cyclobutane]-23-carboxamide]	–	–	pKd [1, 7]: 9.89; NRAS/KRAS (ratio of KD value for NRAS to KD value for KRAS) ([2]; SPR, KD ratio class): A (a compound having 10 or more and less than 20 is denoted as A); HRAS/KRAS (ratio of KD value for HRAS to KD value for KRAS) ([3]; SPR, KD ratio class): A (a compound having 10 or more and less than 20 is denoted as A)
8.80	6.71	CCCOC[C@H]1C(=O)N[C@@H]([C@@H](C)CC)C(=O)N(C)CC(=O)N(C)[C@H]2C/C=C\CCN(C2=O)[C@@H](CC2CCC(F)(F)CC2)C(=O)N(C)CC(=O)N[C@@H](CCc2ccc(C(F)(F)F)c(OC)c2)C(=O)N2C[C@@H](C)C[C@H]2C(=O)NC2(CC(C)(C)C2)C(=O)N(C)[C@@H](C(CC)CC)C(=O)N(C)[C@H](C(=O)N(C)C)CC(=O)N1C [PP2483]	A (a compound having 10 or more and less than 20 is denoted as A)	A (a compound having 10 or more and less than 20 is denoted as A)	–
9.30	6.87	CCO[C@@H]1C[C@H]2C(=O)NC3(CCC3)C(=O)N(C)[C@@H](C3CCCC3)C(=O)N(C)[C@H](C(=O)N3CCOCC3)CC(=O)N(C)[C@@H](Cc3ccc(C#N)cc3)C(=O)N[C@@H]([C@@H](C)CC)C(=O)N(C)CC(=O)N(C)[C@H]3CCCCCN(C3=O)[C@@H](Cc3ccc(C(F)(F)F)cc3)C(=O)N(C)CC(=O)N[C@@H](CCc3cc(F)c(C(F)(F)F)c(F)c3)C(=O)N2C1 [PP1167]	B (a compound having 3 or more and less than 10 is denoted as B)	B (a compound having 3 or more and less than 10 is denoted as B)	–
10.04	7.81	CCO[C@@H]1C[C@H]2C(=O)NC3(CCC3)C(=O)N(C)[C@@H](C3CCCC3)C(=O)N(C)[C@H](C(=O)N(C)C)CC(=O)N(C)[C@@H](CC)C(=O)N[C@@H]([C@@H](C)CC)C(=O)N(C)CC(=O)N(C)[C@H]3CCCCCN(C3=O)[C@@H](Cc3ccc(F)cc3)C(=O)N(C)CC(=O)N[C@@H](CCc3cc(F)c(C(F)(F)F)c(F)c3)C(=O)N2C1 [PP1190]	B (a compound having 3 or more and less than 10 is denoted as B)	B (a compound having 3 or more and less than 10 is denoted as B)	–
–	7.51	CCC[C@H]1C(=O)N[C@@H]([C@@H](C)CC)C(=O)N(C2CC2)CC(=O)N(C)[C@H]2C/C=C\CCN(C2=O)[C@@H](Cc2ccc(C(F)F)cc2)C(=O)N(C)CC(=O)N[C@@H](CCc2cc(F)c(C(F)(F)F)c(F)c2)C(=O)N2C[C@H](OCC)C[C@H]2C(=O)NC2(CC(C)(C)C2)C(=O)N(C)[C@@H](C(CC)CC)C(=O)N(C)[C@H](C(=O)N(C)C)CC(=O)N1C [PP2527]	–	–	pKd [1, 6]: 9.19; NRAS/KRAS (ratio of KD value with respect to GDP-bound NRAS wild-type protein to KD value with respect to KRAS) [2]: AA (a compound having 20 or more is denoted as AA); HRAS/KRAS (ratio of KD value with respect to GDP-bound HRAS wild-type protein to KD value with respect to KRAS) [3]: A (a compound having 10 or more and less than 20 is denoted as A)
10.21	8.11	CCCOC[C@H]1C(=O)N[C@@H]([C@@H](C)CC)C(=O)N(C)CC(=O)N(C)[C@H]2C/C=C\CCN(C2=O)[C@@H](Cc2ccc(C)cc2)C(=O)N(C)CC(=O)N[C@@H](CCc2ccc(C(F)(F)F)c(OC)c2)C(=O)N2C[C@H](OCC)C[C@H]2C(=O)NC2(CC(C)(C)C2)C(=O)N(C)[C@@H](C2CCCC2)C(=O)N(C)[C@H](C(=O)N(C)C)CC(=O)N1C [PP2449]	A (a compound having 10 or more and less than 20 is denoted as A)	A (a compound having 10 or more and less than 20 is denoted as A)	–

SMILES	pKd [1, 5]	pIC50 [4]	NRAS/KRAS (ratio of KD value for NRAS to KD value for KRAS) ([2]; SPR)	HRAS/KRAS (ratio of KD value for HRAS to KD value for KRAS) ([3]; SPR)	other results
CCC[C@H]1C(=O)N[C@@H]([C@@H](C)CC)C(=O)N2CCC[C@H]2C(=O)N(C)[C@H]2C/C=C\CCN(C2=O)[C@@H](Cc2ccc(C)cc2)C(=O)N(C)CC(=O)N[C@@H](CCc2cc(F)c(C(F)(F)F)c(F)c2)C(=O)N2C[C@H](OCC)C[C@H]2C(=O)N(C)C2(CCC2)C(=O)N(C)[C@@H](C2CCCC2)C(=O)N(C)[C@H](C(=O)N2CCCCC2)CC(=O)N1C [PP3115, (1S,4S,10S,13S,17S,20S,26S,28R,32S,38S,42Z)-20-cyclopentyl-32-[2-[3,5-difluoro-4-(trifluoromethyl)phenyl]ethyl]-28-ethoxy-2,14,18,21,24,36-hexamethyl-10-[(1S)-1-methylpropyl]-17-(piperidine-1-carbonyl)-13-propyl-38-(p-tolylmethyl)spiro[2,8,11,14,18,21,24,30,33,36,39-undecazatetracyclo[37.5.1.0^4,8.0^26,30]pentatetracont-42-ene-23,1′-cyclobutane]-3,9,12,15,19,22,25,31,34,37,45-undecone]	8.59	–	A (a compound having 10 or more and less than 20 is denoted as A)	B (a compound having 3 or more and less than 10 is denoted as B)	pKd ([1]; SPR, Single Cycle Kinetics, 1:1 binding model, read-out: KD value with respect to GDP-bound KRAS wild-type protein): 8.59; ratio of the KD value with respect to GDP-bound NRAS wild-type protein to the KD value with respect to KRAS ([2]; SPR, KD(NRAS)/KD(KRAS)): A (a compound having 10 or more and less than 20 is denoted as A); ratio of the KD value with respect to GDP-bound HRAS wild-type protein to the KD value with respect to KRAS ([3]; SPR, KD(HRAS)/KD(KRAS)): B (a compound having 3 or more and less than 10 is denoted as B); pIC50 ([4]; read-out: NCI-H441 cell proliferation inhibitory activity, 50% proliferation inhibitory concentration (IC50 value), NCI-H441, four days, CellTiter-Glo): 8.24
